Reference: article PMC2363476 (British Journal of Cancer, 2000)
Where a name gives a salt, the structure may show the parent alone. Read-outs that look alike come from different tables or passages of the source.

Key:
[1] = Plasma pharmacokinetics of irinotecan and SN-38 (reversed-phase HPLC); details: for SN-38/irinotecan AUC ratio / SN-38 Cmax / AUC / Cmax: cycle 1; for SN-38 Cmax: observed Cmax; for AUC / Cmax: human, plasma; for AUC: intravenous, Irinotecan AUC; for Cmax: iv, Irinotecan Cmax, estimated at the end of i.v. infusion
Procedure: Other radiological investi- gations were carried out if indicated. […] Pharmacokinetic analysis was performed using WinNonlin software. […] Patients were seen weekly while on treatment.

[2] = 1995, cited from earlier work
[3] = tested on: patients with advanced GI tract adenocarcinoma
Text: The primary objectives of this study were to determine the maximum tolerated doses (MTD) of the two drugs given as short infusions every 3 weeks and to determine the toxic effects and DLT of the combination. Secondary objectives were to measure the pharmacokinetics of irinotecan, SN-38 and raltitrexed, to assess the anti-tumour effect of the combination and to recom- mend a safe dose for phase II evaluation. METHODS Definitions DLT was defined as any grade 3 or 4 non-haematological toxicity (except alopecia) following cycle 1; grade 4 neutropenia or grade 3-4 neutropenia associated with fever (> 38C) or sepsis; grade 4 thrombocytopenia or any grade of thrombocytopenia associated with haemorrhage. MTD was defined as the dose level at which 50% of patients experienced the same DLT. […] Exclusion criteria were: previous treatment with topoisomerase I inhibitor; chronic enteropathy; symptomatic cerebral metastasis or leptomeningeal carcinomatosis; unresolved bowel obstruction; pregnancy; previous malignant disease (except adequately treated carcinoma in situ of the cervix uteri or basal cell carcinoma of the skin). Pre-treatment evaluation Prior to entry, patients were evaluated with a physical examina- tion. An ECG, chest X-ray and CT scan of thorax abdomen and pelvis were carried out on all patients. Other radiological investi- gations were carried out if indicated. A full blood count, renal function tests, liver function tests and prothrombin time were also performed. […] A minimum of three patients were recruited to each dose level, and escalation to the next level was carried out when all three had been observed for a minimum of 2 weeks. The initial design was for the level below MTD to be expanded to six patients. […] Patients received six cycles of treatment subject to favourable response. Further cycles could be administered at the investigators' discre- tion if there was evidence of continuing clinical benefit. […] Pharmacokinetic analysis was performed using WinNonlin software. The calculation of kinetic parameters was performed using a 2- or 3-compartment open model for irinotecan, and a non-compartmental analysis for its metabolite SN-38 and raltitrexed. The following parameters were evaluated: maximum plasma concentration (Cmax ); area under the plasma concentration-time curve (AUC); total body clearance (Cl); volume of distribution at steady state (Vss ) and terminal half-life (t1/2 ). Evaluation and management of toxicity No prophylactic antidiarrhoeal treatment was given. […] Patients were seen weekly while on treatment. Toxicities were graded according to the NCI common toxicity criteria (NCI-CTC). […] Any patient experiencing concomitant vomiting was hospitalized to prevent dehydration. […] All patients with febrile neutropaenia were admitted to hospital and treated with intravenous antibiotics. […] In the case of myelosuppression lasting more than 5 weeks from the date of treatment, the patient was withrawn from the study.

[4] = 1998, cited from earlier work
[5] = Plasma pharmacokinetics of raltitrexed (radioimmunoassay); assay type: in vivo; details: human, intravenous
Procedure: […]. […] […]. […] 261 courses were administered. […] Two others had lethargy caused by disease progression. There was no first-cycle neutropenia. […] […]; 6/30 patients (20%) had objective responses. This combination is active with manageable toxicity. […] Other radiological investi- gations were carried out if indicated. […] […]. […] Pharmacokinetic analysis was performed using WinNonlin software. […] […]. Patients were seen weekly while on treatment. […] […]. […] All the other patients were evaluable for toxicity. […] Duration of neutropaenia ranged from 3-8 days. […] Grade 3 lethargy was therefore defined as a DLT. […] […]. […] They therefore continued treatment as scheduled. […] Dose delays were seen after 24/143 cycles (17%). […] Six patients required dose reduction.

[6] = dose level I (irinotecan 175, raltitrexed 2.6 mg m-2), n=3
[7] = dose level II (irinotecan 200, raltitrexed 2.6 mg m-2), n=3
[8] = dose level III (irinotecan 250, raltitrexed 2.6 mg m-2), n=3
[9] = dose level IV (irinotecan 300, raltitrexed 2.6 mg m-2), n=3
[10] = dose level V (irinotecan 350, raltitrexed 2.6 mg m-2), n=3
[11] = dose level VI (irinotecan 350, raltitrexed 3.0 mg m-2), n=6
[12] = dose level VII (irinotecan 400, raltitrexed 2.6 mg m-2), n=5
[13] = 3.0 mg m-2, 14C labelled raltitrexed, single agent, ref Beale et al
[14] = dose level I (irinotecan 175, raltitrexed 2.6 mg m-2), cycle 1, n=3
[15] = dose level II (irinotecan 200, raltitrexed 2.6 mg m-2), cycle 1, n=3
[16] = dose level III (irinotecan 250, raltitrexed 2.6 mg m-2), cycle 1, n=3
[17] = dose level IV (irinotecan 300, raltitrexed 2.6 mg m-2), cycle 1, n=3
[18] = dose level V (irinotecan 350, raltitrexed 2.6 mg m-2), cycle 1, n=3
[19] = dose level VI (irinotecan 350, raltitrexed 3.0 mg m-2), cycle 1, n=6
[20] = dose level VII (irinotecan 400, raltitrexed 2.6 mg m-2), cycle 1, n=6

## CCc1c2c(nc3ccc(O)cc13)-c1cc3c(c(=O)n1C2)COC(=O)[C@]3(O)CC [SN-38]
[1]; all dose levels
  SN-38 time of maximal concentrations following the end of i.v. infusion: ≤ 60 min
[1]; [6]
  SN-38/irinotecan AUC ratio: 2.1%
  SN-38 Cmax: 48000 µg/mL
[1]; [7]
  SN-38/irinotecan AUC ratio: 3.2%
  SN-38 Cmax: 74000 µg/mL
[1]; [8]
  SN-38/irinotecan AUC ratio: 2.3%
  SN-38 Cmax: 60000 µg/mL
[1]; [9]
  SN-38/irinotecan AUC ratio: 2.1%
  SN-38 Cmax: 71000 µg/mL
[1]; [10]
  SN-38/irinotecan AUC ratio: 2.9%
  SN-38 Cmax: 57000 µg/mL
[1]; [11]
  SN-38/irinotecan AUC ratio: 2.1%
  SN-38 Cmax: 100000 µg/mL
[1]; [12]
  SN-38/irinotecan AUC ratio: 2.7%
  SN-38 Cmax: 117000 µg/mL
[1]; over the administered dose range
  SN-38 apparent terminal half-life, mean value: 0.462 days
[1]; over the tested dose range
  SN-38/irinotecan AUC ratio, overall mean value: 2.4%
[2]; 168 phase I cancer patients treated with irinotecan alone, ref Chabot et al
  SN-38 t1/2: 0.442 days
[2]; irinotecan monotherapy, ref Abigerges et al
  SN-38/irinotecan AUC ratio, overall mean value: 3.1%

## Cc1nc2ccc(CN(C)c3ccc(C(=O)N[C@@H](CCC(=O)O)C(=O)O)s3)cc2c(=O)[nH]1 [raltitrexed]
[3]; combination treatment
  patients with lower limb cellulitis secondary to raltitrexed: One
[3]; with irinotecan 350 mg m-2 every 3 weeks (level VI)
  recommended dose for phase II evaluation, raltitrexed: 3.0 mg m-2
[3]; with irinotecan 400 mg m-2, 3-weekly (level VII)
  MTD, raltitrexed dose: 2.6 mg m-2
[4]; [13]
  raltitrexed AUC: 2342 ng/h/mL
  raltitrexed Cmax: 0.737 µg/mL
  raltitrexed clearance: 2.48 L/h
[4]; patients with measured creatinine clearance less than 65 ml min-1, ref Judson et al
  change of raltitrexed AUC in renal impairment: approximately doubled
[5]; [14]
  AUC: 1710 ng·h/mL
  Cmax: 0.561 µg/mL
[5]; dose level I (irinotecan 175, raltitrexed 2.6 mg m-2), cycle 1, n=3, read-out: Raltitrexed Cl (converted)
  clearance: 50.2 mL/min
[5]; dose level I (irinotecan 175, raltitrexed 2.6 mg m-2), cycle 1, n=3, read-out: Raltitrexed Vss
  Vd: 40.7 L
[5]; dose level I (irinotecan 175, raltitrexed 2.6 mg m-2), cycle 1, n=3, read-out: Raltitrexed t1/2 terminal (converted)
  half-life: 9.25 days
[5]; [15]
  AUC: 1440 ng·h/mL
  Cmax: 0.42 µg/mL
[5]; dose level II (irinotecan 200, raltitrexed 2.6 mg m-2), cycle 1, n=3, read-out: Raltitrexed Cl (converted)
  clearance: 78.3 mL/min
[5]; dose level II (irinotecan 200, raltitrexed 2.6 mg m-2), cycle 1, n=3, read-out: Raltitrexed Vss
  Vd: 27.3 L
[5]; dose level II (irinotecan 200, raltitrexed 2.6 mg m-2), cycle 1, n=3, read-out: Raltitrexed t1/2 terminal (converted)
  half-life: 7.92 days
[5]; [16]
  AUC: 1460 ng·h/mL
  Cmax: 0.291 µg/mL
[5]; dose level III (irinotecan 250, raltitrexed 2.6 mg m-2), cycle 1, n=3, read-out: Raltitrexed Cl (converted)
  clearance: 56 mL/min
[5]; dose level III (irinotecan 250, raltitrexed 2.6 mg m-2), cycle 1, n=3, read-out: Raltitrexed Vss
  Vd: 60.2 L
[5]; dose level III (irinotecan 250, raltitrexed 2.6 mg m-2), cycle 1, n=3, read-out: Raltitrexed t1/2 terminal (converted)
  half-life: 14.4 days
[5]; [17]
  AUC: 1810 ng·h/mL
  Cmax: 0.676 µg/mL
[5]; dose level IV (irinotecan 300, raltitrexed 2.6 mg m-2), cycle 1, n=3, read-out: Raltitrexed Cl (converted)
  clearance: 47.2 mL/min
[5]; dose level IV (irinotecan 300, raltitrexed 2.6 mg m-2), cycle 1, n=3, read-out: Raltitrexed Vss
  Vd: 32.3 L
[5]; dose level IV (irinotecan 300, raltitrexed 2.6 mg m-2), cycle 1, n=3, read-out: Raltitrexed t1/2 terminal (converted)
  half-life: 14.5 days
[5]; [18]
  AUC: 2520 ng·h/mL
  Cmax: 0.736 µg/mL
[5]; dose level V (irinotecan 350, raltitrexed 2.6 mg m-2), cycle 1, n=3, read-out: Raltitrexed Cl (converted)
  clearance: 41.7 mL/min
[5]; dose level V (irinotecan 350, raltitrexed 2.6 mg m-2), cycle 1, n=3, read-out: Raltitrexed Vss
  Vd: 30.2 L
[5]; dose level V (irinotecan 350, raltitrexed 2.6 mg m-2), cycle 1, n=3, read-out: Raltitrexed t1/2 terminal (converted)
  half-life: 16.8 days
[5]; [19]
  AUC: 2480 ng·h/mL
  Cmax: 0.772 µg/mL
[5]; dose level VI (irinotecan 350, raltitrexed 3.0 mg m-2), cycle 1, n=6, read-out: Raltitrexed Cl (converted)
  clearance: 40.2 mL/min
[5]; dose level VI (irinotecan 350, raltitrexed 3.0 mg m-2), cycle 1, n=6, read-out: Raltitrexed Vss
  Vd: 25.8 L
[5]; dose level VI (irinotecan 350, raltitrexed 3.0 mg m-2), cycle 1, n=6, read-out: Raltitrexed t1/2 terminal (converted)
  half-life: 12.3 days
[5]; [20]
  AUC: 1500 ng·h/mL
  Cmax: 0.574 µg/mL
[5]; dose level VII (irinotecan 400, raltitrexed 2.6 mg m-2), cycle 1, n=6, read-out: Raltitrexed Cl (converted)
  clearance: 55.7 mL/min
[5]; dose level VII (irinotecan 400, raltitrexed 2.6 mg m-2), cycle 1, n=6, read-out: Raltitrexed Vss
  Vd: 43.8 L
[5]; dose level VII (irinotecan 400, raltitrexed 2.6 mg m-2), cycle 1, n=6, read-out: Raltitrexed t1/2 terminal (converted)
  half-life: 10.9 days
[5]; over all dose ranges, 27 patients, read-out: raltitrexed Cl (converted)
  clearance: 51.7 mL/min
[5]; over all dose ranges, 27 patients, read-out: raltitrexed t1/2 (converted)
  half-life: 12.1 days

## CCc1c2c(nc3ccc(OC(=O)N4CCC(N5CCCCC5)CC4)cc13)-c1cc3c(c(=O)n1C2)COC(=O)[C@]3(O)CC [irinotecan, Irinotecan hydrochloride]
[3]; with raltitrexed 2.6 mg m-2, 3-weekly (level VII)
  MTD, irinotecan dose: 400 mg m-2
[3]; with raltitrexed 3.0 mg m-2 every 3 weeks (level VI)
  recommended dose for phase II evaluation, irinotecan: 350 mg m-2
[1]; [6]
  AUC: 13100 ng·h/mL
  Cmax: 3.53 µg/mL
[1]; [7]
  AUC: 16000 ng·h/mL
  Cmax: 4.7 µg/mL
[1]; [8]
  AUC: 14600 ng·h/mL
  Cmax: 5.92 µg/mL
[1]; [9]
  AUC: 22600 ng·h/mL
  Cmax: 5.98 µg/mL
[1]; [10]
  AUC: 26600 ng·h/mL
  Cmax: 4.89 µg/mL
[1]; [11]
  AUC: 29000 ng·h/mL
  Cmax: 5.43 µg/mL
[1]; [12]
  AUC: 27000 ng·h/mL
  Cmax: 5.41 µg/mL
